In patent US8173606B2, “Sulfated oligosaccharide derivatives” (Progen Pharmaceuticals Limited, priority 2004, dated 2012):

Columns and labels:
FGF-1 = FGF-1 (Homo sapiens, UniProt P05230); assay: SPR based solution affinity assay, growth factor binding (FGF-1); settings: heparin-coated sensorchip, HBS-EP buffer, 25° C.; read-out: Kd aFGF
Method: (§1) Binding affinities of ligands for the growth factors FGF-1, FGF-2 and VEGF were measured using a surface plasmon resonance (SPR) based solution affinity assay. The principle of the assay is that heparin immobilised on a sensorchip surface distinguishes between free and bound growth factor in an equilibrated solution of the growth factor and a ligand. Upon injection of the solution, the free growth factor binds to the immobilised heparin, is detected as an increase in the SPR response and its concentration thus determined. A decrease in the free growth factor concentration as a function of the ligand concentration allows for the calculation of the dissociation constant, Kd. It is important to note that ligand binding to the growth factors can only be detected when the interaction involves the HS binding site, thus eliminating the chance of evaluating non-specific binding to other sites on the protein. A 1:1 stoichiometry has been assumed for all protein:ligand interactions.
(§2) For the testing of growth factor binding activity, heparin-coated sensorchips were used. Their preparation, via immobilisation of biotinylated BSA-heparin on a streptavidin-coated sensorchip, has been described.[5] Heparin has also been immobilised via aldehyde coupling using either adipic acid dihydrazide or 1,4-diaminobutane. […] Ligands binding to FGF-1 and VEGF were measured in HBS-EP buffer (10 mM HEPES, pH 7.4, 150 mM NaCl, 3.0 mM EDTA and 0.005% (v/v) polysorbate 20), while binding to FGF-2 was measured in HBS-EP buffer containing 0.3 M NaCl.[5] […] For each assay mixture, 50-200 μL of solution was injected at 5-40 μL/min and the relative binding response measured. […]
(§3) Sensorgram data were analysed using the BIAevaluation software (BIAcore). […]
(§4) [formula] and the binding equation[5] can be expressed as
(§5) The Kd values given are the values fit, using the binding equation, to a plot of [P] versus [L]total. Where Kd values were measured in duplicate, the values represent the average of the duplicate measurements. […]

VEGF = target: T1, VEGF (Homo sapiens, UniProt P15692); assay: SPR based solution affinity assay, growth factor binding (VEGF); settings: heparin-coated sensorchip, HBS-EP buffer, 25° C.
T1 sequence (P15692 27-191 isoform P15692-4): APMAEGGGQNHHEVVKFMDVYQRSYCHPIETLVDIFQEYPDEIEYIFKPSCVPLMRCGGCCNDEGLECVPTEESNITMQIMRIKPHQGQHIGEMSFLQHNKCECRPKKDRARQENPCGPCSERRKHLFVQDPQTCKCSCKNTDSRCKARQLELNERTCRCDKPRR
Method: as §1, §2, §3, §4, §5

[1] = tested on: herpes simplex virus (HSV-1) KOS321 strain; assay: Antiviral assay, HSV-1 infectivity (plaque forming units); assay type: cell-based; settings: African green monkey kidney cells; virus pre-incubated with compound 10 min
From the text: (§6) In panel A, the results are expressed as a percentage of the number of viral plaque forming units (PFU) formed in cells infected with the compound-treated virions relative to mock-treated controls. In panel B, the results are expressed as a percentage of the average area of 20 viral plaques formed in the continuous presence of compound relative to mock-treated control cells. Monolayer cultures of African green monkey kidney cells[35] and herpes simplex virus (HSV-1) KOS321 strain[36] were used throughout. The antiviral assays on the compounds were performed as described by Nyberg et al.[13] Briefly, the effects of the compounds on the infection of cells by exogenously added virus were tested by mixing serial fivefold dilutions of compound (at 0.032-20 μM) with approximately 200 plaque forming units of the virus. Following incubation of the virus and compound for 10 min at room temperature, the mixture was added to the cells and left on the cell monolayer for 2 h at 37° C. Subsequently, the inoculum was aspirated and replaced with an overlay medium of 1% methylcellulose solution in Eagle's minimum essential medium (EMEM). The viral plaques that developed after incubation of cells for 3 days at 37° C. were stained with 1% crystal violet solution and counted. The effects of the compounds on cell-to-cell spread of HSV-1 were tested by adding serial fivefold dilutions of compound (at 0.032-20 μM) in the serum-free overlay medium to cells after their infection with HSV-1. After incubation of the compound with the cells for 3 days at 37° C., the images of 20 plaques were captured and subjected to area determination using IM500 software (Leica).

[2] = tested on: herpes simplex virus (HSV-1) KOS321 strain; assay: Antiviral assay, HSV-1 cell-to-cell spread (plaque area); assay type: cell-based; settings: African green monkey kidney cells; compound in overlay medium after infection, 3 days
From the text: as §6

FGF-1, sequence (P05230 whole entry, species assumed): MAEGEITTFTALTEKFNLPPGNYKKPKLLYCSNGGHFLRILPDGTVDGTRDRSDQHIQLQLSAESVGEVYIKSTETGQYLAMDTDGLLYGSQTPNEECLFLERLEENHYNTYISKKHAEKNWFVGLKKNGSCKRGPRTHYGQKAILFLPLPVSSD

Benzyl Glycoside Polysulfate [PG500]
Kd (FGF-1): 0.12 ± 0.025 nM
Kd (VEGF): 1.72 ± 0.19 nM
IC50 [1]: 2000 nM
IC50 [2]: 1000 nM

Octyl Glycoside Polysulfate [PG501]
Kd (FGF-1): 0.144 ± 0.008 nM
Kd (VEGF): 1.67 ± 0.11 nM
IC50 [1]: 1000 nM
IC50 [2]: 400 nM
